# Where a name gives a salt, the structure may show the parent alone.
# Biological target: PDE4D3 (Homo sapiens (Human), UniProt Q08499)
# Test: PDE4D3 inhibition (selectivity testing)
# Format: biochemical
# Conditions: not given
# From the text: The compounds have also been tested for their activities on PDEs1-9 and PDE11.
# Sequence of PDE4D3 (Q08499 other isoform, or with tags, fused parts or gaps): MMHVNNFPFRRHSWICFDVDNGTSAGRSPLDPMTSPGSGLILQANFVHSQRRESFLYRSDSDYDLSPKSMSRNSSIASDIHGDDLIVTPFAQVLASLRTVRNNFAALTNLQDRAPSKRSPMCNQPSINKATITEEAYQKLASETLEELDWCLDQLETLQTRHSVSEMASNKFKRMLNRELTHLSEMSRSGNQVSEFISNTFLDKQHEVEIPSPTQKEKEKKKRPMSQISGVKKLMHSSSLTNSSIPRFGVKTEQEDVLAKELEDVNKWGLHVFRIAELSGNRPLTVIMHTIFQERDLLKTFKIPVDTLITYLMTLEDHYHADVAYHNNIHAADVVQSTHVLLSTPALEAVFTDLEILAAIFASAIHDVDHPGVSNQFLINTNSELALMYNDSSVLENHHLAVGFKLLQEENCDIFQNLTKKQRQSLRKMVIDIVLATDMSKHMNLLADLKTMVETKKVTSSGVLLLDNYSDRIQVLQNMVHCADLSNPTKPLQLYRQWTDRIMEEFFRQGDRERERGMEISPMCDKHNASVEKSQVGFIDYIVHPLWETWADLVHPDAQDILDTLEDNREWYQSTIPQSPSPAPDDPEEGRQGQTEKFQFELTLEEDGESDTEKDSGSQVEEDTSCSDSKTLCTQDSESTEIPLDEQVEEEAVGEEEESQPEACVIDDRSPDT
row,IC50,Structure (SMILES)
1,0.9 nM,"CCc1nc(O)c(Cc2ccc3oc4ccccc4c3c2)c2cc(OC)c(OC)cc12 [Compound 6, 4-(Dibenzo[b,d]furan-2-ylmethyl)-1-ethyl-6,7-dimethoxyisoquinolin-3-ol hydrochloride]"
2,82 nM,"CCc1nc(O)c(Cc2cnc3cc(OC)ccc3c2)c2cc(OC)c(OC)cc12 [Compound 31, 1-ethyl-6,7-dimethoxy-4-((7-methoxyquinolin-3-yl)methyl)isoquinolin-3-ol dihydrochloride]"
3,280 nM,"COc1ccc2nc(NCC(F)(F)F)c(Cc3c(O)nc(C(C)C)c4cc(OC)c(OC)cc34)cc2c1 [Compound 51, 1-isopropyl-6,7-dimethoxy-4-((6-methoxy-2-(2,2,2-trifluoroethylamino)quinolin-3-yl)methyl)isoquinolin-3-ol dihydrochloride]"

# Biological target: PDE10A
# Test: Phosphodiesterase assay (TR-FRET, LANCE cAMP kit)
# Format: biochemical
# Conditions: PDE10A (BPS Bioscience) 200 pg/well, biotin-cAMP substrate, 60 min at room temperature
# Description: (§1) The PDE assay is based on the homogenous time-resolved fluorescence resonance energy transfer (TR-FRET) technology (LANCE® from Perkin Elmer). […] When there is PDE activity, resulting in the degradation of the cyclic nucleotide, the complex is not formed and a decrease in signal is observed.
# (§2) The phosphodiesterase assay was developed using the LANCE® cAMP kit (PerkinElmer). The assay buffer contained HBSS with 5 mM HEPES, 0.1% BSA, and 1.5 mM MgCl2, pH 7.4. PDE10A (BPS Bioscience) was used at 200 pg/well (with a specific activity of 3200 pmole/min/μg with assay conditions: 10 mM Tris-HCl, pH7.4, 10 mM MgCl2, 1 mM MnCl2, 200 μM cAMP, 2.5 kU 5′ nucleotidase, 37° C., 20 min). […] Chemical compounds were dissolved in DMSO (final concentration 2% (v/v)).
# (§3) In a 384-well plate, 2 μL inhibitor and 3 μL PDE were added to the well, followed by the addition of 5 μl substrate biotinylated cAMP (1:5). After 60 min incubation at room temperature, 10 μL of assay detection mixture was added to the assay plate. After 1 h at room temperature, the signal was measured on EnVision™ (Perkin Elmer).
row,IC50,Structure (SMILES)
1,0.12 nM,"CCc1nc(O)c(Cc2ccc3oc4ccccc4c3c2)c2cc(OC)c(OC)cc12 [Compound 6, 4-(Dibenzo[b,d]furan-2-ylmethyl)-1-ethyl-6,7-dimethoxyisoquinolin-3-ol hydrochloride]"

# Biological target: PDE10A (Homo sapiens, UniProt Q9Y233)
# Test: Phosphodiesterase assay (TR-FRET, LANCE cAMP kit)
# Format: biochemical
# Conditions: PDE10A (BPS Bioscience) 200 pg/well, biotin-cAMP substrate, 60 min at room temperature
# Description: as §1, §2, §3
# Sequence of PDE10A (Homo sapiens, UniProt Q9Y233) (Q9Y233 whole entry, looked up): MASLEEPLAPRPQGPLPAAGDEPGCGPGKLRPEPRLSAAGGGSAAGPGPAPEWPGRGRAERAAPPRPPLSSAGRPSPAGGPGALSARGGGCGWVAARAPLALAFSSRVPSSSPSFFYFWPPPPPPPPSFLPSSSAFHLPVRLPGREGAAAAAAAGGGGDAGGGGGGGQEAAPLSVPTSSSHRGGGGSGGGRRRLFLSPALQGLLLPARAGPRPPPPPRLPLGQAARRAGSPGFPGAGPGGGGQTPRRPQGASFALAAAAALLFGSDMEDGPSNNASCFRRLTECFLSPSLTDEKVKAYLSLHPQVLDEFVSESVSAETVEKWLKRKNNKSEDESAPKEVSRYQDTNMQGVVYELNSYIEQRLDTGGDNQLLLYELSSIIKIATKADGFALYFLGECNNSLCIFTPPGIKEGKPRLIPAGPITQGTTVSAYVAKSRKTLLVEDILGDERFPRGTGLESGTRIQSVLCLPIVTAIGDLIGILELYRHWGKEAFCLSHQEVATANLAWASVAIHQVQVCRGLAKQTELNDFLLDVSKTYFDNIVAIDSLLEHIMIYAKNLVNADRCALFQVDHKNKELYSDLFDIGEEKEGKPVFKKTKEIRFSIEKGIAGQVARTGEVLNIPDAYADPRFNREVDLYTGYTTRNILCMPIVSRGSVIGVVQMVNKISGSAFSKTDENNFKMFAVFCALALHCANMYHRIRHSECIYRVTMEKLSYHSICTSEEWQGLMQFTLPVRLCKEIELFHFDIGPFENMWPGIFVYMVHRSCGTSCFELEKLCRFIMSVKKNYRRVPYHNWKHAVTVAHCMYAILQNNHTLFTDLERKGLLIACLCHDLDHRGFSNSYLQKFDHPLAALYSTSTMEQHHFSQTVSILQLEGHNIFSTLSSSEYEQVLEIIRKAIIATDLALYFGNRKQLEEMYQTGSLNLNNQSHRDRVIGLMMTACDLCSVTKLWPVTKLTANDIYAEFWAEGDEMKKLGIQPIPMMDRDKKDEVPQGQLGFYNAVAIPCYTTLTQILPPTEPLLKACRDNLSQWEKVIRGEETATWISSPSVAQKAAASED
row,Structure (SMILES),IC50
1,"CCc1nc(O)c(Cc2cnc3cc(OC)ccc3c2)c2cc(OC)c(OC)cc12 [Compound 31, 1-ethyl-6,7-dimethoxy-4-((7-methoxyquinolin-3-yl)methyl)isoquinolin-3-ol dihydrochloride]",13 nM
2,"CCc1nc(O)c(Cc2cc3cc(OC)ccc3nc2NCC(F)(F)F)c2cc(OC)c(OC)cc12 [Compound 45, 1-ethyl-6,7-dimethoxy-4-((6-methoxy-2-(2,2,2-trifluoroethylamino)quinolin-3-yl)methyl)isoquinolin-3-ol dihydrochloride]",30 nM
3,"CCNc1nc2ccc(OC)cc2cc1Cc1c(O)nc(C(C)C)c2cc(OC)c(OC)cc12 [Compound 47, 4-((2-(ethylamino)-6-methoxyquinolin-3-yl)methyl)-1-isopropyl-6,7-dimethoxyisoquinolin-3-ol dihydrochloride]",11 nM
4,"CCCc1nc(O)c(Cc2cc3cc(OCC)ccc3nc2NCC)c2cc(OC)c(OC)cc12 [Compound 49, 4-((6-ethoxy-2-(ethylamino)quinolin-3-yl)methyl)-6,7-dimethoxy-1-propylisoquinolin-3-ol dihydrochloride]",4.6 nM
5,"CCCc1nc(O)c(Cc2cc3cc(OC)ccc3nc2NCC)c2cc(OC)c(OC)cc12 [Compound 50, 4-((2-(ethylamino)-6-methoxyquinolin-3-yl)methyl)-6,7-dimethoxy-1-propylisoquinolin-3-ol dihydrochloride]",0.28 nM
6,"COc1ccc2nc(NCC(F)(F)F)c(Cc3c(O)nc(C(C)C)c4cc(OC)c(OC)cc34)cc2c1 [Compound 51, 1-isopropyl-6,7-dimethoxy-4-((6-methoxy-2-(2,2,2-trifluoroethylamino)quinolin-3-yl)methyl)isoquinolin-3-ol dihydrochloride]",55 nM

# More lines, now with the values ahead:
row,IC50,Structure (SMILES)
1,1.5 nM,"CCCNc1nc2ccc(OC)cc2cc1Cc1c(O)nc(CCC)c2cc(OC)c(OC)cc12 [Compound 52, 6,7-dimethoxy-4-((6-methoxy-2-(propylamino)quinolin-3-yl)methyl)-1-propylisoquinolin-3-ol dihydrochloride]"
2,221 nM,"CCNc1nc2ccc(OC)cc2cc1Cc1c(O)nc(CNS(C)(=O)=O)c2cc(OC)c(OC)cc12 [Compound 58, N-((4-((2-(ethylamino)-6-methoxyquinolin-3-yl)methyl)-3-hydroxy-6,7-dimethoxyisoquinolin-1-yl)methyl)methanesulfonamide dihydrochloride]"
3,1.2 nM,"CCCc1nc(O)c(Cc2cc3cc4c(cc3nc2NCC)OCO4)c2cc(OC)c(OC)cc12 [Compound 64, 4-((6-(ethylamino)-[1,3]dioxolo[4,5-g]quinolin-7-yl)methyl)-6,7-dimethoxy-1-propylisoquinolin-3-ol dihydrochloride]"
4,2 nM,"CCc1nc(O)c(Cc2cc3cc(OC)ccc3nc2NCCOC)c2cc(OC)c(OC)cc12 [Compound 77, 1-Ethyl-6,7-dimethoxy-4-((6-methoxy-2-(2-methoxyethylamino)quinolin-3-yl)methyl)isoquinolin-3-ol dihydrochloride]"
5,88 nM,"COc1cc2c(C(C)C)nc(O)c(Cc3cnc4ccccc4c3)c2cc1OC [Compound 79, 1-Isopropyl-6,7-dimethoxy-4-(quinolin-3-ylmethyl)isoquinolin-3-ol dihydrochloride]"
6,3.2 nM,"CCCc1nc(O)c(Cc2ccc3nc(C)ccc3c2)c2cc(OC)c(OC)cc12 [Compound 80, 6,7-dimethoxy-4-((2-methylquinolin-6-yl)methyl)-1-propylisoquinolin-3-ol dihydrochloride]"
7,0.3 nM,"CCCc1nc(O)c(Cc2cc3cc(OCC)c(F)cc3nc2NCC)c2cc(OC)c(OC)cc12 [Compound 86, 4-((6-Ethoxy-2-(ethylamino)-7-fluoroquinolin-3-yl)methyl)-6,7-dimethoxy-1-propylisoquinolin-3-ol dihydrochloride]"
8,1.8 nM,"CCCc1nc(O)c(Cc2cc3cc(OCC)ccc3nc2NCCNC(C)=O)c2cc(OC)c(OC)cc12 [Compound 88, N-(2-((6-ethoxy-3-((3-hydroxy-6,7-dimethoxy-1-propylisoquinolin-4-yl)methyl)quinolin-2-yl)amino)ethyl)acetamide dihydrochloride]"
